Measured values taken from US20110281807A1, “PLANT DISEASE CONTROL AGENT COMPRISING D-TAGATOSE AS ACTIVE INGREDIENT, AND PLANT DISEASE CONTROL METHOD” (NATIONAL UNIVERSITY CORPORATION KAGAWA UNIVERSITY, priority 2008, published 2011).
Values joined by “and” are separate entries in the source; they are usually repeats but may differ in a detail not shown here. Equal values may be shown once. Read-outs that look alike come from different tables or passages of the source.

Columns and labels:
Sphaerotheca fuliginea = assay: cucumber powdery mildew, field test; conditions: for D.D.S (Degree of disease severity), Av / P.V. (Preventive value), Av / n/N × 100, Av: average of plots
Experimental: Test plants (cucumber, variety: Ancor) were grown until approximately 10 leaves. […] After the first spraying of the dilution, the test plants were inoculated with condia of suspension of Sphaerotheca fuliginea. The disease severity of the test plants was observed 7 days after the last spraying, and the effectiveness of test sample was judged. Tests were carried out in triplicate using 8 plants per each test. The disease severity of the test plants was judged in accordance with the following criteria. The preventive value was calculated from the degree of disease severity.
0 (No lesion) 1 (Lesion area was not more than 5% of the leaf area) 2 ((Lesion area was 5%-25% of the leaf area) 3 (Lesion area was 25%-50% of the leaf area) 4 (Lesion area was not less than 50% of the leaf area)

Pythium aphanidermatum = assay: cucumber damping-off, pot test: soil drench of D-tagatose combined with fungicides; conditions: Pythium aphanidermatum, in Cucumis sativus, soil, 336 h, read-out: Preventive value
Phytophthora infestans = type: in vivo; conditions: for Preventive value: inoculated 3 days after spraying
[1] = tested on: Pseudoperonospora cubensis; conditions: alone
Experimental: Test plants (cucumber, variety: Sagami hanpaku) were seeded and grown until the one true leaf stage. D-tagatose alone was diluted to 5%, 1%, 0.5% and 0.1%, and the combination of D-tagatose and other saccharide were diluted to be 0.5% and 0.5% solution respectively with distilled water, and then 10 ml of the dilution was sprayed on the test plant. Three days after spraying of the solution, a sporangium suspension of Pseudoperonospora cubensis containing 1×10^3/ml were inoculated by spraying on test plants and then put them for 16 hours in an inoculation chamber (20° C. to 23° C.) to promote disease. Seven days after inoculation the disease severity of the test plants was observed and the effectiveness of test sample was judged. Tests were carried out using two plants for each test set and the disease severity of the test plants was judged in accordance with the following criteria. The preventive value was calculated from the degree of disease severity as in example 1.
Synergistic effect was determined by the Colby's equation below.
X is the observed effect, in percentage, of the first active ingredient and, and Y is the observed effect, in percentage, of the second active ingredient. E is the effect, in percentage, of the mixture expected from additive contribution of the individual components.

[2] = 10000 ppm, per plot (1, 2), 50 leaves
[3] = 50000 ppm, per plot (1, 2), 50 leaves

O=C(CO)[C@@H](O)[C@@H](O)[C@H](O)CO [D-Tagatose, D-tagatose]
D.D.S (Degree of disease severity), Av (Sphaerotheca fuliginea; 10000 ppm): 5.75 | P.V. (Preventive value), Av (Sphaerotheca fuliginea; 10000 ppm): 94.0 | n/N × 100, Av (Sphaerotheca fuliginea; 10000 ppm): 15.0 | D.D.S (Degree of disease severity) (Sphaerotheca fuliginea; 10000 ppm, per plot (1, 2)): 8.00 | P.V. (Preventive value) (Sphaerotheca fuliginea; 10000 ppm, per plot (1, 2)): 96.4 and 91.7 | Disease severity 0: number of leaves (Sphaerotheca fuliginea; [2]): 46 and 39 | Disease severity 3: number of leaves (Sphaerotheca fuliginea; [2]): 1 | Disease severity 4: number of leaves (Sphaerotheca fuliginea; [2]): 0 | D.D.S (Degree of disease severity), Av (Sphaerotheca fuliginea; 50000 ppm): 1.25 | P.V. (Preventive value), Av (Sphaerotheca fuliginea; 50000 ppm): 98.7 | n/N × 100, Av (Sphaerotheca fuliginea; 50000 ppm): 5.0 | D.D.S (Degree of disease severity) (Sphaerotheca fuliginea; 50000 ppm, per plot (1, 2)): 1.00 and 1.50 | P.V. (Preventive value) (Sphaerotheca fuliginea; 50000 ppm, per plot (1, 2)): 99.0 and 98.4 | n/N × 100 (Sphaerotheca fuliginea; 50000 ppm, per plot (1, 2)): 4.0 and 6.0 | Disease severity 0: number of leaves (Sphaerotheca fuliginea; [3]): 48 and 47 | Disease severity 1: number of leaves (Sphaerotheca fuliginea; [3]): 2 and 3 | Disease severity 2: number of leaves (Sphaerotheca fuliginea; [3]): 0 | Disease severity 3: number of leaves (Sphaerotheca fuliginea; [3]): 0 | Disease severity 4: number of leaves (Sphaerotheca fuliginea; [3]): 0 | effectiveness in words (Sphaerotheca fuliginea; field test): effective enough | pest or weed control at 5000 ppm (Pythium aphanidermatum): 33% | pest or weed control at 10000 ppm (Pythium aphanidermatum): 83% | Preventive value (Phytophthora infestans; 50000 ppm spray): 28.3 | Preventive value (Phytophthora infestans; 100000 ppm spray): 58.3 | effectiveness in words (Phytophthora infestans; foliar spray): effective enough | Preventive value ([1]; 1000 ppm): 0.0 | Preventive value ([1]; 5000 ppm): 8.3 | Preventive value ([1]; 10000 ppm): 98.3 | Preventive value ([1]; 50000 ppm): 100.0
